Source: ChEMBL document CHEMBL1201862, “PubChem BioAssay data set” (2004)
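Results reflect a 48-hour exposure of cells in 96-well plates to compound at five concentrations. GI50 = concentration required for 50% inhibition of growth.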 Calls of active or inactive are those of the source. Rule as the data show it: active = GI50 up to about 1.1 µM and inactive = higher.

Assays:
Assay in all cases: growth of human tumour cells (NCI), 48 h
NCI-H226 = system: NCI-H226
MOLT-4 = system: MOLT-4
KM12 = system: KM12
SNB-75 = system: SNB-75
UACC-62 = system: UACC-62
SN12C = system: SN12C
LOX IMVI = system: LOX IMVI
SNB-78 = system: SNB-78
M19-MEL = system: M19-MEL
RXF 393 = system: RXF 393
IGROV-1 = system: IGROV-1
M14 = system: M14
NCI-H460 = system: NCI-H460
HT-29 = system: HT-29
SK-MEL-5 = system: SK-MEL-5
OVCAR-4 = system: OVCAR-4
SK-MEL-28 = system: SK-MEL-28
DLD-1 = system: DLD-1
NCI-H23 = system: NCI-H23
XF498 = system: XF498
SK-OV-3 = system: SK-OV-3
SR = system: SR
OVCAR-3 = system: OVCAR-3
RXF 631 = system: RXF 631
TK-10 = system: TK-10
OVCAR-8 = system: OVCAR-8
A549 = system: A549
U-251 = system: U-251
SNB-19 = system: SNB-19
Malme-3M = system: Malme-3M
SW-620 = system: SW-620
OVCAR-5 = system: OVCAR-5
HCT-15 = system: HCT-15
EKVX = system: EKVX
HOP-18 = system: HOP-18
SF-539 = system: SF-539
SK-MEL-2 = system: SK-MEL-2
DMS-114 = system: DMS-114
SF-295 = system: SF-295
HCC 2998 = system: HCC 2998
CAKI-1 = system: CAKI-1
COLO 205 = system: COLO 205
UO-31 = system: UO-31
DMS-273 = system: DMS-273
UACC-257 = system: UACC-257
A498 = system: A498
HOP-62 = system: HOP-62
ACHN = system: ACHN
K562 = system: K562
RPMI-8226 = system: RPMI-8226
HOP-92 = system: HOP-92
SF-268 = system: SF-268
KM-20L2 = system: KM-20L2
HCT-116 = system: HCT-116
NCI-H522 = system: NCI-H522
HL-60 = system: HL-60
CCRF-CEM = system: CCRF-CEM
LXFL 529 = system: LXFL 529
786-0 = system: 786-0

Which results are given for `c1cncc(O[Si](Oc2cccnc2)(Oc2cccnc2)Oc2cccnc2)c1`?
GI50 (NCI-H226): > 100 µM (inactive); GI50 (MOLT-4): > 100 µM (inactive); GI50 (KM12): > 100 µM (inactive); GI50 (SNB-75): > 100 µM (inactive); GI50 (UACC-62): > 100 µM (inactive); GI50 (SN12C): > 100 µM (inactive); GI50 (LOX IMVI): > 100 µM (inactive); GI50 (SNB-78): > 100 µM (inactive); GI50 (M19-MEL): > 100 µM (inactive); GI50 (RXF 393): > 100 µM (inactive); GI50 (IGROV-1): > 100 µM (inactive); GI50 (M14): > 100 µM (inactive); GI50 (NCI-H460): > 100 µM (inactive); GI50 (HT-29): > 100 µM (inactive); GI50 (SK-MEL-5): > 100 µM (inactive); GI50 (OVCAR-4): > 100 µM (inactive); GI50 (SK-MEL-28): > 100 µM (inactive); GI50 (DLD-1): > 100 µM (inactive); GI50 (NCI-H23): > 100 µM (inactive); GI50 (XF498): > 100 µM (inactive); GI50 (SK-OV-3): > 100 µM (inactive); GI50 (SR): > 100 µM (inactive); GI50 (OVCAR-3): > 100 µM (inactive); GI50 (RXF 631): > 100 µM (inactive); GI50 (TK-10): > 100 µM (inactive); GI50 (OVCAR-8): > 100 µM (inactive); GI50 (A549): > 100 µM (inactive); GI50 (U-251): > 100 µM (inactive); GI50 (SNB-19): > 100 µM (inactive); GI50 (Malme-3M): > 100 µM (inactive); GI50 (SW-620): > 100 µM (inactive); GI50 (OVCAR-5): > 100 µM (inactive); GI50 (HCT-15): > 100 µM; GI50 (EKVX): > 100 µM (inactive); GI50 (HOP-18): > 100 µM (inactive); GI50 (SF-539): > 100 µM (inactive); GI50 (SK-MEL-2): > 100 µM (inactive); GI50 (DMS-114): > 100 µM (inactive); GI50 (SF-295): > 100 µM (inactive); GI50 (HCC 2998): > 100 µM (inactive); GI50 (CAKI-1): > 100 µM (inactive); GI50 (COLO 205): > 100 µM (inactive); GI50 (UO-31): > 100 µM (inactive); GI50 (DMS-273): > 100 µM (inactive); GI50 (UACC-257): > 100 µM (inactive)

Which results are given for `Cc1ccc(C(=O)/C=C/c2cccc([N+](=O)[O-])c2)cc1`?
GI50 (A498): 98.2 µM (inactive); GI50 (HOP-62): > 100 µM (inactive); GI50 (NCI-H226): > 58.7 µM (inactive); GI50 (MOLT-4): 4.7 µM (inactive); GI50 (KM12): 24.1 µM (inactive); GI50 (SNB-75): > 47.3 µM (inactive); GI50 (ACHN): > 100 µM (inactive); GI50 (UACC-62): > 100 µM (inactive); GI50 (SN12C): > 56.4 µM (inactive); GI50 (LOX IMVI): 66.4 µM (inactive); GI50 (K562): 28.4 µM (inactive); GI50 (SNB-78): > 100 µM (inactive); GI50 (M19-MEL): > 44.6 µM (inactive); GI50 (RXF 393): > 43.7 µM (inactive); GI50 (RPMI-8226): 26.6 µM (inactive); GI50 (HOP-92): > 100 µM (inactive); GI50 (IGROV-1): > 67.9 µM (inactive); GI50 (M14): 98.6 µM (inactive); GI50 (NCI-H460): > 100 µM (inactive); GI50 (HT-29): 29.3 µM (inactive); GI50 (SK-MEL-5): > 100 µM (inactive); GI50 (OVCAR-4): 46.9 µM (inactive); GI50 (SK-MEL-28): > 100 µM (inactive); GI50 (DLD-1): 44 µM (inactive); GI50 (NCI-H23): > 74.5 µM (inactive); GI50 (SF-268): > 67.5 µM (inactive); GI50 (SK-OV-3): > 94.4 µM (inactive); GI50 (SR): 18.6 µM (inactive); GI50 (OVCAR-3): 54.1 µM (inactive); GI50 (RXF 631): > 73.8 µM (inactive); GI50 (TK-10): > 100 µM (inactive); GI50 (OVCAR-8): 42.9 µM (inactive); GI50 (A549): > 100 µM (inactive); GI50 (U-251): 22.2 µM (inactive); GI50 (SNB-19): 60.1 µM (inactive); GI50 (Malme-3M): > 100 µM (inactive); GI50 (SW-620): 21.6 µM (inactive); GI50 (HCT-15): 21.6 µM; GI50 (KM-20L2): 36.6 µM (inactive); GI50 (HCT-116): 16.6 µM (inactive); GI50 (EKVX): > 100 µM (inactive); GI50 (HOP-18): > 100 µM (inactive); GI50 (NCI-H522): 62.5 µM (inactive); GI50 (SF-539): > 58.6 µM (inactive); GI50 (SK-MEL-2): > 100 µM (inactive); GI50 (HL-60): 36.6 µM (inactive); GI50 (CCRF-CEM): 29.1 µM (inactive); GI50 (DMS-114): 46.5 µM (inactive); GI50 (LXFL 529): 37.8 µM (inactive); GI50 (SF-295): 55.5 µM (inactive); GI50 (HCC 2998): > 54.7 µM (inactive); GI50 (CAKI-1): > 92 µM (inactive); GI50 (COLO 205): > 40.7 µM (inactive); GI50 (UO-31): 46.9 µM (inactive); GI50 (DMS-273): > 83.4 µM (inactive); GI50 (UACC-257): > 100 µM (inactive); GI50 (786-0): 28.4 µM (inactive)
